The record followed here is patent US5314913A, “4- or 5-(substituted sulfonyl)methyl-3(2H)-furanones” (American Home Products Corporation, priority 1992, dated 1994).

Assay [1] deals with blood glucose levels in diabetic (db/db) mice. The assay is described as follows: Blood glucose lowering in diabetic db/db mice. It is filed as in vivo, db/db (C57BL/KsJ) mouse. Particulars: p.o. by gavage, 4 doses, difference between mean percent change of vehicle and drug treated group; for change in vivo at 100 mg/kg: Mus musculus, po, read-out: Blood Glucose Levels % Change from Vehicle. The protocol: The animals are obese, glucose intolerant and have fasting hyperglycemia which is sometimes accompanied by a paradoxical hyperinsulinemia.
On the morning of Day 1, 12-15 mice [male db/db (C57BLKsJ), Jackson Laboratories, 2 to 7 months of age and body weight 35 to 60 g] were fasted for 4 hours, weighed and a baseline blood sample was collected from the tail-tip of each mouse without anesthesia, placed directly into a fluoride-containing tube, mixed and maintained on ice. Food was then returned to the mice. The plasma was separated and levels of glucose in plasma determined by the Abbott VP Analyzer. Because of the variable plasma glucose levels of the db/db mice, the mice were randomly assigned into 3-5 groups (4-5 mice per group) of equivalent mean plasma glucose levels:
On the afternoon of Days 1, 2 and 3 the vehicle, control or test drugs were administered (p.o.) to the ad libitum fed mice. The positive control, ciglitazone [(±)-5-[4-[(1-methylcyclohexyl]benzyl]-thiazolidine-2,4-dione] see Fujita et al. Diabetes, 32, 804 (1983), was given by gavage at a dose of 100 mg/kg/day. The test compounds were given by gavage at a dose of 100 mg/kg/day. The fourth and final dose was administered on the morning of day 4, after the mice had been fasted for 18 h. A blood sample was collected immediately preceeding the last dose, followed by samples collected at 90 and 120 min after drug administration. Insulin is immediately administered to each mouse after the 120 min sample. Serial blood samples were collected at 45 and 120 min after administration. The plasma was separated and the levels of glucose in plasma determined by the Abbot VP analyzer.
Analysis of variance followed by Dunnett's multiple comparison (one-sided) was used to estimate the degree of statistical significance of the difference between the vehicle control group and the individual drug-treated groups. A drug was considered active, at the specific dose administered, if the difference of the plasma glucose level has a p<0.10.
The actual difference between the mean percent change of blood glucose levels of the vehicle and the drug treated group is reported in Table 1.

Another assay deals with cholesterol absorption. Put plainly: Cholesterol absorption in normal rats (oral [14C] cholesterol, serum radioactivity). It is filed as in vivo. The following applies: serum radioactivity at 6 hr. The protocol:
Cholesterol absorption was measured in normal rats following simultaneous oral doses of the test compounds and radioactive cholesterol according to the method of Cayen and Dvornik except that [^14 C] cholesterol in propylene glycol and olive oil (vehicle for test compound) were used. Serum radioactivity was measured at 6 hr [Cayen, M. N. and Dvornik, D., J. Lipid Res., 20, 162 (1979)].

In assay [2] the test system is gastric mucosal lesions produced by ethanol. The assay is described as follows: Ethanol induced cytotoxicity in rats (gastric mucosal lesions). It is filed as in vivo, Male Sprague-Dawley rats. Particulars: Rattus norvegicus, oral, 1 hour prior to ethanol, read-out: % Inhibition (of lesion formation). The protocol:
The purpose of this assay is to evaluate the effectiveness of the compounds of the present invention in preventing the formation of gastric mucosal lesions produced by ethanol. The assay is based on A. Robert, et al: Gastroenterology, 77: 433-443, 1979.
Male Sprague-Dawley rats weighing between 120-150 grams were fasted for 24 hours prior to the experiment (water ad libitum). At least two hours before dosing, the animals were placed in individual cages with wire grid bottoms and denied access to water.
Ethanol was administered orally at 1 mL per animal. The compounds of the present invention were dissolved in water or suspended in water with 0.5% carboxymethylcullulose and administered orally at a dose based on an appropriate standard giving ED50 to ED75 response of cytoprotective activity.
The rats were randomly divided into groups of equal number, ordinarily 10 to a group. The rats were weighed and the individual weights were recorded. Exactly 1 hour prior to the administration of ethanol, the screening group was treated with the compounds of the present invention, and the control group with the vehicle. One hour after administering the ethanol the animals were sacrificed by cervical dislocation. The stomachs were removed, cut along the greater curvature and cleansed of all debris with tap water. The stomachs were set aside and kept moist with saline until the lesions were scored.
Macroscopic lesions on the gastric mucosa were numerically graded. The final grade assigned a stomach was the sum of all the grades.
Streaks longer than 6 mm are graded in multiples of 2 mm.
The degree of cytotoxicity occurring in each group is represented as the mean± S.E.M.
The mean of each treatment group was compared to the control group and expressed as the % inhibition of lesion formation.

With `CC1(COc2ccc(CC3SC(=O)NC3=O)cc2)CCCCC1` (racemic) [Ciglitazaone, (±)-5-[4-[(1-methylcyclohexyl]benzyl]-thiazolidine-2,4-dione, reference compound], the change in vivo at 100 mg/kg in assay [1] is -50 to -24%.

As to `CC1(C)OC=C(CS(=O)(=O)c2ccccc2)C1=O` [Example 1, 2,2-Dimethyl-4-(phenylsulfonyl)methyl-3(2H)-furanone], the change in vivo at 100 mg/kg in assay [1] is -30%. For the same molecule, the “decrease in cholesterol absorption” value with cholesterol absorption (100 mg/kg) turned out to be 79%.

As for `CC1(C)OC=C(CS(=O)(=O)c2cccc3ccccc23)C1=O` [Example 2, 2,2-Dimethyl-4-[(1-naphthalenyl)sulfonyl]methyl-3(2H)-furanone], the change in vivo at 100 mg/kg in assay [1] is -21%.

For the molecule `COc1ccccc1S(=O)(=O)CC1=COC(C)(C)C1=O` [Example 3, 4-[(2-Methoxyphenyl)sulfonyl]methyl-2,2-dimethyl-3(2H)-furanone], in assay [1], the change in vivo at 100 mg/kg is -21%.

As to `CC1(C)OC=C(CS(=O)(=O)c2ccc([N+](=O)[O-])cc2)C1=O` [Example 4, 2,2-Dimethyl-4-[(4-nitrophenyl)sulfonyl]methyl-3(2H)-furanone], in assay [1], the change in vivo at 100 mg/kg is -30%.

With `O=C1C(CS(=O)(=O)c2ccccc2)=COC12CCCCC2` [Example 6], in assay [1], the change in vivo at 100 mg/kg was -25%.

On to `CC1(C)OC(CS(=O)(=O)c2ccccc2)=CC1=O` [Example 7, 2,2-Dimethyl-5-(phenylsulfonyl)methyl-3(2H)-furanone], for which the change in vivo at 100 mg/kg in assay [1] is -38%. Further, the “decrease in cholesterol absorption” value in the assay on cholesterol absorption (250 mg/kg) stood at 58%.

As to `CC1(C)OC(C(C)(C)S(=O)(=O)c2ccccc2)=CC1=O` [Example 8, 2,2-Dimethyl-5-[1-methyl-1-(phenylsulfonyl)ethyl]-3(2H)-furanone], the change in vivo at 100 mg/kg in assay [1] was -42%.

In the case of `CC1(C)OC(C2(S(=O)(=O)c3ccccc3)CCCC2)=CC1=O` [Example 9, 2,2-Dimethyl-5-[1-(phenylsulfonyl)-1-cyclopentyl]-3(2H)-furanone], the change in vivo at 100 mg/kg in assay [1] was -25%.

For `CC1(c2ccccc2)OC(CS(=O)(=O)c2ccccc2)=CC1=O` (stereo not drawn) [Example 10, 2-Methyl-2-phenyl-5-(phenylsulfonyl)methyl-3(2H)-furanone], in assay [1], the change in vivo at 100 mg/kg is -19%. Also, the “decrease in cholesterol absorption” value with cholesterol absorption (250 mg/kg) was 35%.

`CC1(C)OC(CS(=O)(=O)c2ccc(Cl)cc2)=CC1=O` [Example 11, 5-[(4-Chlorophenyl)sulfonyl]methyl-2,2-dimethyl-3(2H)-furanone]: the inhibition in vivo at 25 mg/kg in assay [2] amounted to 44%.

For the molecule `CC1(C)OC(CS(=O)(=O)c2ccc(F)cc2)=CC1=O` [Example 12, 5-[(4-Fluorophenyl)sulfonyl]methyl-2,2-dimethyl-3(2H)-furanone], the inhibition in vivo at 25 mg/kg in assay [2] stood at 6%.

As for `CC1(C)OC(CS(C)(=O)=O)=CC1=O` [Example 13, 2,2-Dimethyl-5-(methylsulfonyl)methyl-3(2H)-furanone], the inhibition in vivo at 25 mg/kg in assay [2] worked out at 54%.

On to `CC1(C)OC(CS(=O)(=O)c2ccc(C(C)(C)C)cc2)=CC1=O` [Example 14, 2,2-Dimethyl-5-[[4-(1,1-dimethylethyl)phenyl]sulfonyl]methyl-3(2H)-furanone], for which the inhibition in vivo at 25 mg/kg in assay [2] worked out at 43%.

Regarding `CC1(C)OC=C(CS(=O)(=O)c2ccc(F)cc2)C1=O` [Example 15, 4-[(4-Fluorophenyl)sulfonyl]methyl-2,2-dimethyl-3(2H)-furanone], in assay [2], the inhibition in vivo at 25 mg/kg came out at 42%.

For `CC1(C)OC=C(CS(=O)(=O)c2ccc(C(C)(C)C)cc2)C1=O` [Example 16, 2,2-Dimethyl-4-[[4-(1,1-dimethylethyl)phenyl]sulfonyl]methyl-3(2H)-furanone], the inhibition in vivo at 25 mg/kg in assay [2] came to 30%.

Regarding `CC1(C)OC=C(CS(=O)(=O)C(C)(C)C)C1=O` [Example 17, 4-[(1,1-Dimethylethyl)sulfonyl]methyl-2,2-dimethyl-3(2H)-furanone], the inhibition in vivo at 25 mg/kg in assay [2] was 87%.

Take `CC1(c2ccc(F)cc2)OC=C(CS(=O)(=O)C(C)(C)C)C1=O` (stereo not drawn) [Example 18, 4-[(1,1-Dimethylethyl)sulfonyl]methyl-2-(4-fluorophenyl)-2-methyl-3(2H)-furanone]: the inhibition in vivo at 10 mg/kg in assay [2] was 80%.

On to `CC1(c2ccc(Cl)cc2)OC=C(CS(=O)(=O)C(C)(C)C)C1=O` (stereo not drawn) [Example 19, 4-[(1,1-Dimethylethyl)sulfonyl]methyl-2-(4-chlorophenyl)-2-methyl-3(2H)-furanone], for which the inhibition in vivo at 10 mg/kg in assay [2] amounted to 45%.

For `CC1(c2ccccc2)OC=C(CS(=O)(=O)C(C)(C)C)C1=O` (stereo not drawn) [Example 20, 4-[(1,1-Dimethylethyl)sulfonyl]methyl-2-methyl-2-phenyl-3(2H)-furanone], the inhibition in vivo at 25 mg/kg in assay [2] turned out to be 76%.

In the case of “N-[[(4,5-Dihydro-5,5-dimethyl-4-oxo-3-furanyl)methyl]sulfonyl]phenylacetamide [Example 5]”, the “Blood Glucose Levels % Change from Vehicle” value in assay [1] (100 (mg/kg)) is -23%.
